Test results: ChEMBL document CHEMBL1201862, “PubChem BioAssay data set” (2004)
The source made the active and inactive calls. Cut-off read from the data, not from the text of the source, for most assays here: active = IC50 of 10 µM or less and inactive = more.

What was measured:
[1] = biological target: T1, Neuropeptides B/W receptor type 1 (Homo sapiens, UniProt P48145); experiment: Fluorescence-based dose response cell-based high throughput screening assay to identify antagonists of the G-protein coupled receptor 7 (GPR7). [Related pubchem assays: 1952 (Screening assay (GPR7 antagonists).), 1880 (Summary AID.)]; format: functional
T1 sequence (P48145 whole entry): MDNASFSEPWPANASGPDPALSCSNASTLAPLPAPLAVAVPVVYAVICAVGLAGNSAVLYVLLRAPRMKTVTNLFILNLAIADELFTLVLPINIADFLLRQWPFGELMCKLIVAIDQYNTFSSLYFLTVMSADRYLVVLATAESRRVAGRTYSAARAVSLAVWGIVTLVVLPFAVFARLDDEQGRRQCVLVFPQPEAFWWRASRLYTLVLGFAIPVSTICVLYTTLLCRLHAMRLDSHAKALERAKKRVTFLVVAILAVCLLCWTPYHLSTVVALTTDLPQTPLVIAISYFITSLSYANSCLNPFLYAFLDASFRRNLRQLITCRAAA

[2] = biological target: Melanin-concentrating hormone receptor 1 (Homo sapiens, UniProt Q99705); experiment: Fluorescence-based counterscreen for antagonists of the G-protein coupled receptor 7 (GPR7): cell-based high throughput dose response assay to identify antagonists of the melanin-concentrating hormone receptor 1 (MCHR1).; format: functional
HEK293 [3] = experiment: optical interference in Abeta FP readout, dose response, artefact control for IDE activator project, biochemical, fluorescence polarization (AID 588442); format: functional, cell-based; conditions: Homo sapiens
Insulin-degrading enzyme [4] = biological target: T2, Insulin-degrading enzyme (Homo sapiens, UniProt P14735); experiment: activators of endogenous IDE in HEK cells, dose response, cell-based, fluorescence polarization (AID 588439); format: functional
T2 sequence (P14735 whole entry): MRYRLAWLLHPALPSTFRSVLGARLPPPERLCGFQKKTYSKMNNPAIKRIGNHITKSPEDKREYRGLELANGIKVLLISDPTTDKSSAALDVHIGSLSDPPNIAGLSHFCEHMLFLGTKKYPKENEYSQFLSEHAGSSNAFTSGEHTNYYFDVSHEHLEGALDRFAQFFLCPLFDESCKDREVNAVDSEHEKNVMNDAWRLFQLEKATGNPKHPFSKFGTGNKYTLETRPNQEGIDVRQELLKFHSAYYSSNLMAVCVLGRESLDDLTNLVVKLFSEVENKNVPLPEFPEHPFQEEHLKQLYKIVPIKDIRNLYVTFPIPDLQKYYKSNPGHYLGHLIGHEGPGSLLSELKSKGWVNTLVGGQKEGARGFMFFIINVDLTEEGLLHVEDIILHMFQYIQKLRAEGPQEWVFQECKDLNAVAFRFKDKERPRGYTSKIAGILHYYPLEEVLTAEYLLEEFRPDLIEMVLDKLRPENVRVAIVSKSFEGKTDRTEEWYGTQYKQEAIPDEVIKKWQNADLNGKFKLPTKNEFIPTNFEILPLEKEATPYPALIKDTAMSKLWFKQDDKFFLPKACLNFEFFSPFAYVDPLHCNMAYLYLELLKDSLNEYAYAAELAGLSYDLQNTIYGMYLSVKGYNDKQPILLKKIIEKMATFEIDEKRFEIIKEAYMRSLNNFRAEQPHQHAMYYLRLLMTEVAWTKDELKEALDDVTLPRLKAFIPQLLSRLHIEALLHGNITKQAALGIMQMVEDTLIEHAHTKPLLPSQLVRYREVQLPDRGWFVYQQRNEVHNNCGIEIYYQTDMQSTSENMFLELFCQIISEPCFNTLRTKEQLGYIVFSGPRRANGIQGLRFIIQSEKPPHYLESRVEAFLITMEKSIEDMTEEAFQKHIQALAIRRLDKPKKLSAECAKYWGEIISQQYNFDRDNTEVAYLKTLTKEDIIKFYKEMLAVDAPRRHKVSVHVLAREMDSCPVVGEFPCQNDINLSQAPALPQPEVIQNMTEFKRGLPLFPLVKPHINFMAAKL

NS3 = NS3 (Hepatitis C virus, UniProt A3EZJ3); experiment: PubChem AID 2173; set-up: species or system Hepacivirus hominis
HEK293 [5] = experiment: HEK cell cytotoxicity by LDH release, dose response, cytotoxicity control for IDE activator project, fluorescence, HEK cells (AID 588440); format: functional, cell-based; conditions: Homo sapiens;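 note: cytotoxicity by LDH release measuring loss of membrane integrity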
[6] = biological target: E3 ubiquitin-protein ligase XIAP (Homo sapiens, UniProt P98170); experiment: Counter Screen using XIAP-Bir3 for Chemical Antagonists of Bir1/2 domains of IAP-family anti-apoptotic proteins. [Related pubchem assays (depositor defined):AID1018, AID1449, AID1514, AID1638, AID1749, AID1750, AID488957, AID488963]
Beta-lactamase [7] = biological target: Beta-lactamase (Pseudomonas aeruginosa, UniProt Q79MP6);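 note: biochemical dose-response test of metallo-beta-lactamase enzyme inhibition, read out by epi-absorbance; purified recombinant IMP-1 metallo-beta-lactamase with nitrocefin as substrate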
Insulin-degrading enzyme [8] = biological target: T2, Insulin-degrading enzyme; experiment: activators of recombinant IDE enzyme, dose response, counter-screen for IDE activator project, biochemical, fluorescence polarization (AID 588681)
Beta-lactamase [9] = biological target: Beta-lactamase (Salmonella choleraesuis (strain SC-B67), UniProt Q5J463)
Cytochrome P450 2D6 = Cytochrome P450 2D6 (Homo sapiens, UniProt P10635); experiment: qHTS Assay for Inhibitors and Substrates of Cytochrome P450 2D6. [Related pubchem assays: 410 ]; format: ADME; conditions: read-out: Potency
[10] = biological target: T3, Neuropeptide Y receptor type 1 (Homo sapiens, UniProt P25929); format: functional;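 note: HEK293 cells with a CNG channel challenged with NPY then isoproterenol; potency as antagonist that reverses NPY suppression of cAMP signal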
T3 sequence (P25929 whole entry): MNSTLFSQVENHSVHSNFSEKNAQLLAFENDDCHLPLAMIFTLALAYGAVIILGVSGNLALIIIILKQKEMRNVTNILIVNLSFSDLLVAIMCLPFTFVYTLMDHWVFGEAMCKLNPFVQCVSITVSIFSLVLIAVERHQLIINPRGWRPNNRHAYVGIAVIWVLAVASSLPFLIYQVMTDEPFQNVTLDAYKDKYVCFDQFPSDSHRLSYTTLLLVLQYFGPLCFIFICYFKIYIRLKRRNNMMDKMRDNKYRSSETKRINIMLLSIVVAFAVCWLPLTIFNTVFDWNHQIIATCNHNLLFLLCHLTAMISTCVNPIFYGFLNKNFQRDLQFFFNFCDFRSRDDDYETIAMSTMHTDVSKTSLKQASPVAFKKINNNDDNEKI

[11] = biological target: T4, Neuropeptide Y receptor type 2 (Homo sapiens, UniProt P49146); format: functional, cell-based;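 note: HEK293 cells expressing the receptor and a CNG channel; stimulus was NPY near EC95 followed by isoproterenol to raise cAMP; antagonist potency measured as restoring cAMP signal that NPY suppresses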
T4 sequence (P49146 whole entry): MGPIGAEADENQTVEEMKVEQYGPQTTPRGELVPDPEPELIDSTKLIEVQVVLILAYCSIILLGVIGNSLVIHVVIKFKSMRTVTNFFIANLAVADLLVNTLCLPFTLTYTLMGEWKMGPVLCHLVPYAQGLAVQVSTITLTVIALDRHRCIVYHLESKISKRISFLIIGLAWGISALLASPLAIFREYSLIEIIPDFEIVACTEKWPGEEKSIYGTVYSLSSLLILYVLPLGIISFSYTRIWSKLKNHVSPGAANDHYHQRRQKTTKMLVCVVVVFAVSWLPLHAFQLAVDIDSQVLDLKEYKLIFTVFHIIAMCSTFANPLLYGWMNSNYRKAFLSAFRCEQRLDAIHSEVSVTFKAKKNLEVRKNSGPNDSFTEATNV

Melanin-concentrating hormone receptor 1, sequence (Q99705 whole entry): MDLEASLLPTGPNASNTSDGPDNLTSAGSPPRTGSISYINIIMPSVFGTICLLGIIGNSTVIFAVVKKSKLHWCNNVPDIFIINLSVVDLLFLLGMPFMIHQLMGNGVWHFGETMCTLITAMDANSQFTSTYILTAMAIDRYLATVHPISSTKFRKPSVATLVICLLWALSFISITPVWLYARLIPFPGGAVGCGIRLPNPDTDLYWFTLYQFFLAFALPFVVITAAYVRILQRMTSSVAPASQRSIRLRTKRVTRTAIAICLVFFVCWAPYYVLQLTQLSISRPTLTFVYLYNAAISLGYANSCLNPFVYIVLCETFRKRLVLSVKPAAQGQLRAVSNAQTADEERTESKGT
Cytochrome P450 2D6, sequence (P10635 whole entry): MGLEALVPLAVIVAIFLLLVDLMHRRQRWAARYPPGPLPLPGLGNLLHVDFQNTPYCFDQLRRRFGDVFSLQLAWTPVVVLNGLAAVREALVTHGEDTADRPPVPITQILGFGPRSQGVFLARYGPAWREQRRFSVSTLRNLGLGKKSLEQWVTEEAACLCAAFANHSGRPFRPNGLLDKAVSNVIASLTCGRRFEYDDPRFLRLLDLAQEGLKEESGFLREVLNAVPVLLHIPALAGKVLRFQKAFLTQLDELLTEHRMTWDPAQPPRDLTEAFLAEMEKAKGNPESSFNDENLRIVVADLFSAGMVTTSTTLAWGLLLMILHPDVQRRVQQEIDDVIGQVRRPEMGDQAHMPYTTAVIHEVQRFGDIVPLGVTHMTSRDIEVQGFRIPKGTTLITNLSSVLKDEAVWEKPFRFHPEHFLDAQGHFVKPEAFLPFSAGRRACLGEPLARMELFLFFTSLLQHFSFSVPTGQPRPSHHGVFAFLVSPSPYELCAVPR
NS3, sequence (A3EZJ3 whole entry): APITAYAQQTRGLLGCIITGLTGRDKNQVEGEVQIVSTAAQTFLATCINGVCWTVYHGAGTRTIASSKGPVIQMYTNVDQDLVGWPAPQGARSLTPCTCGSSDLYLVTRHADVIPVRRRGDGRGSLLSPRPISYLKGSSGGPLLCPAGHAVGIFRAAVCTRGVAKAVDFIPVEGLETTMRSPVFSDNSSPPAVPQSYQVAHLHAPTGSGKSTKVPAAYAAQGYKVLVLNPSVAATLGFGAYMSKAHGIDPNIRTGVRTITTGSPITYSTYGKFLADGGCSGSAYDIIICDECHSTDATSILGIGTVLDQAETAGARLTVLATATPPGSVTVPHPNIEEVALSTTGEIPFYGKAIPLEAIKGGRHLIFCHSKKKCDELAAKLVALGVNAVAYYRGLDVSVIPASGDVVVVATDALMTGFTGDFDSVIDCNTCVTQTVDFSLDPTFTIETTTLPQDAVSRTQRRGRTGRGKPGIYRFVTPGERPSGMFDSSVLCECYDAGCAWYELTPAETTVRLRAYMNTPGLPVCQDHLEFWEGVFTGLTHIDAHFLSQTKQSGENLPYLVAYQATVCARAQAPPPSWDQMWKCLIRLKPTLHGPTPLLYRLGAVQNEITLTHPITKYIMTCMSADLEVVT
Beta-lactamase (Pseudomonas aeruginosa, UniProt Q79MP6), sequence (Q79MP6 whole entry): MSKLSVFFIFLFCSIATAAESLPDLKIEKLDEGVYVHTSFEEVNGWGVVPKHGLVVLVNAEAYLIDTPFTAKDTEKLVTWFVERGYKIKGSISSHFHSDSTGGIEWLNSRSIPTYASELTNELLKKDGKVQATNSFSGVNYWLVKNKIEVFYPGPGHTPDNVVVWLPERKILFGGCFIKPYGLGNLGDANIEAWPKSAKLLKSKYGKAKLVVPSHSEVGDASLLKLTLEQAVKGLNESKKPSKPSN
Beta-lactamase (Salmonella choleraesuis (strain SC-B67), UniProt Q5J463), sequence (Q5J463 whole entry): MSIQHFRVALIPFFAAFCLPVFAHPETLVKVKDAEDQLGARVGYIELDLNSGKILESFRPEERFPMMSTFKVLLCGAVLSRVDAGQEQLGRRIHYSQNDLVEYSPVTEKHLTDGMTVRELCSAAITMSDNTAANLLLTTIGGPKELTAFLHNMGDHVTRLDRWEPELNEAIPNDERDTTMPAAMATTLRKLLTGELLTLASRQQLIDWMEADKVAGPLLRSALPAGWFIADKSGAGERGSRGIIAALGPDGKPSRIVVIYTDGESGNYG
E3 ubiquitin-protein ligase XIAP, sequence (P98170 whole entry): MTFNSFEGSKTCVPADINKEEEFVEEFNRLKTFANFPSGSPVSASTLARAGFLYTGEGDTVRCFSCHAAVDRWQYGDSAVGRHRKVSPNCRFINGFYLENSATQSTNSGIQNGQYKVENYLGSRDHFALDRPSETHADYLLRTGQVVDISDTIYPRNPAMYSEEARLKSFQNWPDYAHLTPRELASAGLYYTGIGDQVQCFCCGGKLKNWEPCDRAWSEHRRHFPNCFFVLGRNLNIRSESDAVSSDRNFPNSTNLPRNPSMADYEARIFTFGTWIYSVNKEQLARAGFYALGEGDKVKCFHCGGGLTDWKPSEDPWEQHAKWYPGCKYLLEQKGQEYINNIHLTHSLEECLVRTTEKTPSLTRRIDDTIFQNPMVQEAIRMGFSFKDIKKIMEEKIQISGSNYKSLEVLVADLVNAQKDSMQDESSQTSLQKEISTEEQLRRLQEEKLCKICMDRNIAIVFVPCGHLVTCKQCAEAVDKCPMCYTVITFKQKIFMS

COc1ccc(OC)c(NS(=O)(=O)c2c(C(=O)N3CCCCCC3)c(C)n(C)c2C)c1
IC50 [1]: > 43.8 µM (not active)
IC50 [2]: > 43.8 µM (not active)

O=c1ccc2c(-c3ccccc3)c3ccc(O)cc3oc-2c1
EC50 (HEK293 [3]): > 54.6 µM (inactive)
EC50 (Insulin-degrading enzyme [4]): > 54.6 µM (inactive)
IC50 (NS3): 7.38 µM (active)
IC50 (HEK293 [5]): > 89.1 µM (inactive)
IC50 [6]: > 20 µM (inactive)
IC50 (Beta-lactamase [7]): 0.399 µM (active)
EC50 (Insulin-degrading enzyme [8]): > 54.6 µM (inactive)
IC50 (Beta-lactamase [9]): 0.19 µM (active)

N=c1c(C(=O)NCCc2ccccc2)cc2c(=O)n3ccccc3nc2n1CC1CCCO1 (configuration not stated)
IC50 [1]: > 43.8 µM (not active)
IC50 [2]: 158 µM (not active)

C=C(C)C(O)/C=C/c1ccc(Br)cc1 (configuration not stated)
AC50 (Cytochrome P450 2D6): 3.16 µM (inconclusive)

Nn1c(Cc2cccc3ccccc23)nnc1SCc1c(Cl)cccc1Cl
IC50 [10]: 5.1 µM (active)
IC50 [11]: 4.3 µM (active)

CCCCNC(=O)c1onc(CSc2ccccc2F)c1C(=O)O
IC50 [10]: 14.7 µM (not active)
IC50 [11]: 13.3 µM (not active)
